The results in this text go back to PMC6458995, “MAP4K4 Inhibition Promotes Survival of Human Stem Cell-Derived Cardiomyocytes and Reduces Infarct Size In Vivo” (Cell Stem Cell, 2019).

Structures are written as SMILES.

Common to all, as to assay: Dundee kinase panel
Holding throughout (format): biochemical
Common to all, as to conditions: for remaining activity at 1 µM: read-out: residual activity

One assay addresses T1, BRK (Homo sapiens, UniProt Q13882).
T1 construct: lines 1-140) and Reaction Biology
The protocol:
(§1) Compounds were screened at 1 μM. For key hits, pIC50 values were then determined by HTRF as above. […] Stability in mouse and human liver microsomes was determined by Cyprotex.

For another assay, the target named is T2, CHK1 (Homo sapiens, UniProt O14757).
T2 construct: lines 1-140) and Reaction Biology
T2 sequence (O14757 1-476): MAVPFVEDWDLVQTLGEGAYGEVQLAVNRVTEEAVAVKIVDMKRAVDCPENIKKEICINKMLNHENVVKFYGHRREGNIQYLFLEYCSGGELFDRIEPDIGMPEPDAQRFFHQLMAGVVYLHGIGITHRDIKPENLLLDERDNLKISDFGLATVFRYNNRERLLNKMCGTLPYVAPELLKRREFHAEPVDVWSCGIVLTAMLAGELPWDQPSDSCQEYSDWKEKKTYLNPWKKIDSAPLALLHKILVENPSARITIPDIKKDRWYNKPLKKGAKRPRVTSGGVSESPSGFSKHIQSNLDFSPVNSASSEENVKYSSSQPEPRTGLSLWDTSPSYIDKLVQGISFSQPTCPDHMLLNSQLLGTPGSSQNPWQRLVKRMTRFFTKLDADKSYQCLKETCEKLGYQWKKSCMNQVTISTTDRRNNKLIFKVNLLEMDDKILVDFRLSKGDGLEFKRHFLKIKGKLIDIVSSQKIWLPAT
Here is the method: as §1

The target of a further assay is T3, FGF-R1 (Homo sapiens, UniProt P11362).
T3 construct: lines 1-140) and Reaction Biology
The protocol:
as §1

A further assay has as its target T4, HIPK1 (Homo sapiens, UniProt Q86Z02).
T4 construct: lines 1-140) and Reaction Biology
Here is the method: as §1

For the next assay, the target named is T5, IRAK1 (Homo sapiens, UniProt P51617).
T5 construct: lines 1-140) and Reaction Biology
The protocol: as §1

A further assay addresses T6, MKK1 (Homo sapiens, UniProt Q02750).
T6 construct: lines 1-140) and Reaction Biology
The protocol: as §1

The next assay deals with T7, MST3 (Homo sapiens, UniProt Q9Y6E0).
T7 construct: lines 1-140) and Reaction Biology
The protocol:
as §1

The next assay deals with T8, PDGFRA (Homo sapiens, UniProt P16234).
T8 construct: lines 1-140) and Reaction Biology
Here is the method:
as §1

The target in the next assay is T9, PKD1 (Homo sapiens, UniProt Q15139).
T9 construct: lines 1-140) and Reaction Biology
T9 sequence (Q15139 1-912): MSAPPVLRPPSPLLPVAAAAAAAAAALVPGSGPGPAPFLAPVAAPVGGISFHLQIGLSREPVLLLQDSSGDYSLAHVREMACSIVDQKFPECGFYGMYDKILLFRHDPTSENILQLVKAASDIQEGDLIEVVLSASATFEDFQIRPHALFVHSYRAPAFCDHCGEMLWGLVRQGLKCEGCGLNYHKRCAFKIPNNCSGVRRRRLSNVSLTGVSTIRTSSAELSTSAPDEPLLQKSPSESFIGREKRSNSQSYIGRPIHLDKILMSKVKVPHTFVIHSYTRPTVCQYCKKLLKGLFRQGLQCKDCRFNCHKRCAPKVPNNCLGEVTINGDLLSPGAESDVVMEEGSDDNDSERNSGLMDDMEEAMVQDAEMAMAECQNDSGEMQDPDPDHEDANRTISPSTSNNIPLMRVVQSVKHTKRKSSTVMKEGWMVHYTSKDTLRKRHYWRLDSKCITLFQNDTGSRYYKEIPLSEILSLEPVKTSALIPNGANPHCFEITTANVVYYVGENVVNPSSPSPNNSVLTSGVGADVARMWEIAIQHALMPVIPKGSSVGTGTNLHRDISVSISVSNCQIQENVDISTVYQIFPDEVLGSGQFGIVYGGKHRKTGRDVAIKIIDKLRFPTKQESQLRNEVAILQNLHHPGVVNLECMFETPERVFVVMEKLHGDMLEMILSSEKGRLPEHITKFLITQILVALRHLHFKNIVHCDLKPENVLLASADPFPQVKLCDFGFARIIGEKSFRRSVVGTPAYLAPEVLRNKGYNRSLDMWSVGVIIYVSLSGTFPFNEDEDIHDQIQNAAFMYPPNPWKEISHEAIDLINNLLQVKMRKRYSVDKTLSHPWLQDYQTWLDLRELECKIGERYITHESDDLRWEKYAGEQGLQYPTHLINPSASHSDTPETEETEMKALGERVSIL
Here is the method:
as §1

For a further assay, the target named is T10, WNK1 (Homo sapiens, UniProt Q9H4A3).
T10 construct: lines 1-140) and Reaction Biology
The protocol:
as §1

T7 sequence (Q9Y6E0 whole entry): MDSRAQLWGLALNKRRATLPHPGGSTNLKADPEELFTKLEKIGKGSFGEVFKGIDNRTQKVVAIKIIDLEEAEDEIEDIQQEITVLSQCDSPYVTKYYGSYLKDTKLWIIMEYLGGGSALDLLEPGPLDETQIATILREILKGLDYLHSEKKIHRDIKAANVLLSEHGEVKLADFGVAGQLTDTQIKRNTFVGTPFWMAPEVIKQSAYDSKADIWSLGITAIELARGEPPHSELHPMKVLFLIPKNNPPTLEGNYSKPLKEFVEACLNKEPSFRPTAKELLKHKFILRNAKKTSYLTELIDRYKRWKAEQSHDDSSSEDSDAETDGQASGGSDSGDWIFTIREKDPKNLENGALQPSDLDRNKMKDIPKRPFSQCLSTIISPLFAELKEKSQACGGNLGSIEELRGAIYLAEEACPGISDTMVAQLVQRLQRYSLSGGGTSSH
T4 sequence (Q86Z02 whole entry): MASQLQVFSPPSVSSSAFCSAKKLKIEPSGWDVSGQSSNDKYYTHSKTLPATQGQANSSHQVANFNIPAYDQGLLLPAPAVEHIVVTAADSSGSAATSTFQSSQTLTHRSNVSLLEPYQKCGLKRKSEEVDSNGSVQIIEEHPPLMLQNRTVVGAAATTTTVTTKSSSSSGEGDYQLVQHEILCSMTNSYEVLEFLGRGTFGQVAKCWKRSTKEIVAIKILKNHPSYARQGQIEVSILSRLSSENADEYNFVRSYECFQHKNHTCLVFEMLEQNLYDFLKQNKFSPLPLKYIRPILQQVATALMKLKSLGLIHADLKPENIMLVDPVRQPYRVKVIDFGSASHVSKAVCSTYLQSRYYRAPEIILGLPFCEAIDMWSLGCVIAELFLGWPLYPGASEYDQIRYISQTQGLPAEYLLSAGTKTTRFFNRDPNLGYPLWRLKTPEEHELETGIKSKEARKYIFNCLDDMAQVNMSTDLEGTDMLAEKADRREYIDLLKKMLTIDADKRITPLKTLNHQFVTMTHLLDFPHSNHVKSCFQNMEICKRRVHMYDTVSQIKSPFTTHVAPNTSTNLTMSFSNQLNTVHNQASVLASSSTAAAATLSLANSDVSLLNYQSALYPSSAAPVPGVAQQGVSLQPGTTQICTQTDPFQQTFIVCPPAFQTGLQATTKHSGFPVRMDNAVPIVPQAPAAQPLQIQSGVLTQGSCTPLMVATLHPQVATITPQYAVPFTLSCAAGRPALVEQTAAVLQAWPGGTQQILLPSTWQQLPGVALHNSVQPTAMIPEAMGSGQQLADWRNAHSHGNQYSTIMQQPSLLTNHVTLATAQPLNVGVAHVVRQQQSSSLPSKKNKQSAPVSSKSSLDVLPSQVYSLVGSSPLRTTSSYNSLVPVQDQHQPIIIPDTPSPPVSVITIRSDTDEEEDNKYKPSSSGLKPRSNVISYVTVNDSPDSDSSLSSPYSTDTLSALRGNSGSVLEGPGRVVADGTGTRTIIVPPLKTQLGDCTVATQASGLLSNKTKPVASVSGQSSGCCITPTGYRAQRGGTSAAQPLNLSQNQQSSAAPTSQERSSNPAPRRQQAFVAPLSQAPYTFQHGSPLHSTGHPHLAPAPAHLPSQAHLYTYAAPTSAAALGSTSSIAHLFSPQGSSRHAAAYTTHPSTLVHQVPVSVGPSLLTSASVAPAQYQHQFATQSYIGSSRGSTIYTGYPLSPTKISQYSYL
T3 sequence (P11362 22-822): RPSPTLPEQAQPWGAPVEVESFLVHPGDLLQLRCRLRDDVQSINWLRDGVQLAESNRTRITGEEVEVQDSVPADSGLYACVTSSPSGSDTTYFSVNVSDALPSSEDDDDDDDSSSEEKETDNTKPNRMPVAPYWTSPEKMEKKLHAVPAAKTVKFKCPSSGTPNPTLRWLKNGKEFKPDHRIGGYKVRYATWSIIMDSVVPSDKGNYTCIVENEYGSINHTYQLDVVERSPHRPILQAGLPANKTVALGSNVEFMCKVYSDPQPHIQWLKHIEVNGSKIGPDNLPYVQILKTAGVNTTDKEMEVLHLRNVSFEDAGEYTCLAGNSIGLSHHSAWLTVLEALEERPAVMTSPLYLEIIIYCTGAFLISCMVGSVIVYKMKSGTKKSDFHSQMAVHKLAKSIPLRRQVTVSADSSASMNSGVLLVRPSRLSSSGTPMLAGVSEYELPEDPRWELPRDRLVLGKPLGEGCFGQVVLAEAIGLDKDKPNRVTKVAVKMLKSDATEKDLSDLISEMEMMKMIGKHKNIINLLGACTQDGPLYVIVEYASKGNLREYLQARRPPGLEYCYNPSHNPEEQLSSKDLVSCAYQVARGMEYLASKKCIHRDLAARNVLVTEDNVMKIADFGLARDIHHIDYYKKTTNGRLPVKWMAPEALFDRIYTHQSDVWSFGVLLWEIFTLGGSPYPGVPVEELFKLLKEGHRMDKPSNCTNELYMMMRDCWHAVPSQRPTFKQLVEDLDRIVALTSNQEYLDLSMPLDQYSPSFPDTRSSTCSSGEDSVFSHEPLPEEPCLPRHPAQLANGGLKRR
T6 sequence (Q02750 whole entry): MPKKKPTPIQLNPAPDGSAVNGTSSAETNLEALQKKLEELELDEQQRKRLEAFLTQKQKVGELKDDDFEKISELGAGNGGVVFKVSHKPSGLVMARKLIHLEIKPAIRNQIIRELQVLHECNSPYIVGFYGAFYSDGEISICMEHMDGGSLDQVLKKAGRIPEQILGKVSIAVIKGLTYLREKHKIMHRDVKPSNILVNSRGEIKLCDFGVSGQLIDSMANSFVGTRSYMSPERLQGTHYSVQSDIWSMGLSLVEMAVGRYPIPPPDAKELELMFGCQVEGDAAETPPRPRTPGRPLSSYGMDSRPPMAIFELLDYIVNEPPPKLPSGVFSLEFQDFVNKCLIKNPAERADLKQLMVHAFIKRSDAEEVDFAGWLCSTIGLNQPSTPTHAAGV
T5 sequence (P51617 whole entry): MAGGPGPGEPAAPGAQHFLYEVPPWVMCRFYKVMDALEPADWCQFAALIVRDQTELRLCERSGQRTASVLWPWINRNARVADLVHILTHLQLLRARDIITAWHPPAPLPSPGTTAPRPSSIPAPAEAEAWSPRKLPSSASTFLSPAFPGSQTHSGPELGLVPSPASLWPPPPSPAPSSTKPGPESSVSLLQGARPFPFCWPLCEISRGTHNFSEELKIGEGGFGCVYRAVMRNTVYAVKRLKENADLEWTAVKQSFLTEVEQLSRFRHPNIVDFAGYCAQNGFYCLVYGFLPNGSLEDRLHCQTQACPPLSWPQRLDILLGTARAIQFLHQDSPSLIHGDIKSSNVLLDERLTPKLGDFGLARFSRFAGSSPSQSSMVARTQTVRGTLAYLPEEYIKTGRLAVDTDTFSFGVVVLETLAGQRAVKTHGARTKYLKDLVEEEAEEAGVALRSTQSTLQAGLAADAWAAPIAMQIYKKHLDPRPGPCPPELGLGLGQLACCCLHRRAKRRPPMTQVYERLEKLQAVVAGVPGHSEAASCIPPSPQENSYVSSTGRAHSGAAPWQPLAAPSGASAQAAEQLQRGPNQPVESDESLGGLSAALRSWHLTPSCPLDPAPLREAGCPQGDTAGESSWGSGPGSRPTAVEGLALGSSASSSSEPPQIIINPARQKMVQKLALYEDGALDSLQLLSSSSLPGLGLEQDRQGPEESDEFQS
T8 sequence (P16234 24-1089): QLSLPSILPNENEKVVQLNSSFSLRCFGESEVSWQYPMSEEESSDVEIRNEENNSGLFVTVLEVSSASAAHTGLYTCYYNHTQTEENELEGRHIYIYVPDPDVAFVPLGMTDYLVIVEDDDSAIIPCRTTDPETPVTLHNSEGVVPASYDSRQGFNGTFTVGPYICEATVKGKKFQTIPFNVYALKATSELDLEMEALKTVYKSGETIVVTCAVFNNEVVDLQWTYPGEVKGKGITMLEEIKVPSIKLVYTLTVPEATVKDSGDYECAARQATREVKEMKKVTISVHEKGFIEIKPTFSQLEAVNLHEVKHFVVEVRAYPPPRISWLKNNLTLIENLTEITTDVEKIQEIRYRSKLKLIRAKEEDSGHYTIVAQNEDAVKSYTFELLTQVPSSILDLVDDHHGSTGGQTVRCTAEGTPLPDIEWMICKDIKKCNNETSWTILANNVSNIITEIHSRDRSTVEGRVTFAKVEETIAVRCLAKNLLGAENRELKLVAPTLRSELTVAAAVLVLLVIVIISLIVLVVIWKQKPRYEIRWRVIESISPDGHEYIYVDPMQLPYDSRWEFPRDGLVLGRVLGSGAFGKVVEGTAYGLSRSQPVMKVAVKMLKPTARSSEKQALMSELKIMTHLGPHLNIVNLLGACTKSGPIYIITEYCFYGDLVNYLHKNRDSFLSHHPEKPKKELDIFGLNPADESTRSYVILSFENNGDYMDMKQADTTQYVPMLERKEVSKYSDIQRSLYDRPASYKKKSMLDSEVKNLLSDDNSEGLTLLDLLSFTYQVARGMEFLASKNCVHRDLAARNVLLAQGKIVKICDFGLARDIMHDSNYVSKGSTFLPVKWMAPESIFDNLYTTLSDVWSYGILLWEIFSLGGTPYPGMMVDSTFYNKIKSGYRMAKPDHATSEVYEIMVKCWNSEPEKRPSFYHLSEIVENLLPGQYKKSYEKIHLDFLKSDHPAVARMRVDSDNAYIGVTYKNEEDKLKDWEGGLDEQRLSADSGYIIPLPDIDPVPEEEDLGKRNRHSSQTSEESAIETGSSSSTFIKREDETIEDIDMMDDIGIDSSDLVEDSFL
T1 sequence (Q13882 whole entry): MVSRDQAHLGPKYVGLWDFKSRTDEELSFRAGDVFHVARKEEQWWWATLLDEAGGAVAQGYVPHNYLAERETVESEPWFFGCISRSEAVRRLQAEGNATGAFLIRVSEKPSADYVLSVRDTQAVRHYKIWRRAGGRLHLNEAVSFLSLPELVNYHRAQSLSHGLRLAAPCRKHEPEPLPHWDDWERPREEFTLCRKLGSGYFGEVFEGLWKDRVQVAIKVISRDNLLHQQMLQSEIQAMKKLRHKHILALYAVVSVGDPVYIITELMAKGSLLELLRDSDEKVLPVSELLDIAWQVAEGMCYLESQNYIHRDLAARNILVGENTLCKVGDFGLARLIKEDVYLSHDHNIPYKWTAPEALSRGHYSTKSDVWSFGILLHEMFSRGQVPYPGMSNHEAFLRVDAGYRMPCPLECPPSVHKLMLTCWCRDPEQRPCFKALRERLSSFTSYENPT

Regarding `Oc1ncnc2c1c(-c1ccccc1)cn2-c1ccccc1` [F1386-0303, 5,7-diphenyl-7H-pyrrolo[2,3-d]pyrimidin-4-ol], the remaining activity at 1 µM was 108% at BRK; 98% at CHK1; 99% at FGF-R1; 54% at HIPK1; 107% on IRAK1; 101% at MKK1. Further, the remaining activity at 1 µM on MST3 stood at 120%; on PDGFRA, 93%; on PKD1 it was 103%; on WNK1, 109%.
Consider `O=C1Cc2c([nH]c3ccc(Br)cc23)-c2ccccc2N1` [Kenpaullone], for which the remaining activity at 1 µM on BRK turned out to be 97%; at CHK1 it was 68%; at FGF-R1 it was 108%; at HIPK1 it was 102%; on IRAK1 it was 39%; on MKK1, 97%. Moreover, the remaining activity at 1 µM came to 67% on MST3, 48% at PDGFRA, 100% at PKD1 and 92% at WNK1.
On to `COCCOc1ccc(-c2cn(-c3ccccc3)c3nc[nH]c(=O)c23)cc1` [DMX-5804, 5-[4-(2-methoxy-ethoxy)-phenyl]-7-phenyl-3,7-dihydro-pyrrolo[2,3-d]pyrimidin-4-one], for which the remaining activity at 1 µM worked out at 88% at BRK; 86% on CHK1; 69% on FGF-R1; 109% at HIPK1; 100% on IRAK1; 113% on MKK1. The remaining activity at 1 µM at MST3 is 95%; on PDGFRA it was 88%; on PKD1, 102%; at WNK1, 106%.
For the molecule `O=C1Nc2ccc(I)cc2/C1=C/c1cc(Br)c(O)c(Br)c1` [GW5074], the remaining activity at 1 µM on BRK amounted to 77%; on CHK1, 33%; at FGF-R1, 89%; at HIPK1, 84%; at IRAK1, 57%; at MKK1, 80%. Besides, the remaining activity at 1 µM on MST3 was found to be 29%; on PDGFRA it was 24%; on PKD1 it was 66%; at WNK1 it was 94%.
Turning to `Nc1ncc(C(=O)NC2CN(C(=O)C3CC3)C2)c2ccc(-c3cccc(F)c3)nc12` [GNE-495], the residual activity on BRK (1 μM) came out at 94%; at CHK1 (1 μM), 93%; on FGF-R1 (1 μM) it was 119%; on HIPK1 (1 μM) it was 97%; on IRAK1 (1 μM), 113%; at MKK1 (1 μM), 56%. Further, the residual activity worked out at 72% on MST3 (1 μM), 97% at PDGFRA (1 μM), 68% at PKD1 (1 μM) and 102% at WNK1 (1 μM).

What is called residual activity is the signal under treatment as a percentage of the control signal.
